Measurements taken from the supplement of paper PMC11061612.

Tests used:
[1] = compound: CC1=CN2[C@@H](C1)C=NC3=CC(=C(C=C3C2=O)OC)OCCCCCOC4=C(C=C5C(=C4)N=C[C@@H]6CC(=CN6C5=O)C)OC [SG3199]; conditions: max 0.001 µM
Procedure, shortened: (§1)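 Cancer cell lines in 1536-well plates (7.5 μl DMEM/F12 or RPMI, 10% FBS) were held 24 hours at 37°C and 5% CO2 and then dosed for 72 hours at a final DMSO of typically 0.2%. Viability was taken from CellTiter-Glo 2.0 luminescence, scaled between blank-well and DMSO-well means. Curves were fitted as two-parameter logistic models with a non-linear mixed effects model, from which the single-agent IC50 was taken.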

[2] = compound: CC(C)n1c(=O)n(C)c2cnc3cc(F)c(-c4ccc(OCCCN5CCCCC5)nc4)cc3c21 [AZD1390]; conditions: max 0.3 µM
Procedure, shortened: as §1

[3] = compound: COc1cccc2c1C(=O)c1c(O)c3c(c(O)c1C2=O)C[C@@](O)(C(=O)CO)C[C@@H]3O[C@H]1C[C@H](N)[C@H](O)[C@H](C)O1 [Doxorubicin]; conditions: max 1 µM
Procedure, shortened: as §1

[4] = compound: Cc1cc2ncnn2cc1Nc1ncc2c(n1)n(C1CCOCC1)c(=O)n2C [AZD7648]; conditions: max 10 µM
Procedure, shortened: as §1

[5] = compound: CC1=C(C(=CC=C1)Cl)NC(=O)C2=CN=C(S2)NC3=CC(=NC(=N3)C)N4CCN(CC4)CCO [Dasatinib]; conditions: max 2 µM
Procedure, shortened: as §1

[6] = compound: O=C(c1cc(Cc2n[nH]c(=O)c3ccccc23)ccc1F)N1CCN(C(=O)C2CC2)CC1 [Olaparib]; conditions: max 10 µM
Procedure, shortened: as §1

[7] = compound: Cc1c2c(nn1C)CSCc1cc(n(C)n1)CSc1cc(c3ccccc3c1)OCCCc1c(C(=O)O)n(C)c3c-2c(Cl)ccc13 [AZD5991]; conditions: max 1 µM
Procedure, shortened: as §1

[8] = compound: CN(C)CCCOc1ccc(-c2ccc3ncc4c(c3c2)n(C2CCOCC2)c(=O)n4C)cn1 [AZD0156]; conditions: max 3 µM
Procedure, shortened: as §1

[9] = compound: C=CCn1c(=O)c2cnc(Nc3ccc(N4CCN(C)CC4)cc3)nc2n1-c1cccc(C(C)(C)O)n1 [AZD1775]; conditions: max 3 µM
Procedure, shortened: as §1

[10] = compound: COc1cc(Nc2ncc3c(n2)-c2ccc(Cl)cc2C(c2c(F)cccc2OC)=NC3)ccc1C(=O)O [Alisertib]; conditions: max 10 µM
Procedure, shortened: as §1

[11] = compound: COc1cc2ncnc(Nc3ccc(F)c(Cl)c3)c2cc1OCCCN1CCOCC1 [Gefitinib]; conditions: max 10 µM
Procedure, shortened: as §1

[12] = compound: C[C@@H](Oc1cc(-c2cnn(C3CCNCC3)c2)cnc1N)c1c(Cl)ccc(F)c1Cl [Crizotinib]; conditions: max 10 µM
Procedure, shortened: as §1

[13] = compound: CCc1c2c(nc3ccc(O)cc13)-c1cc3c(c(=O)n1C2)COC(=O)[C@]3(O)CC [SN-38]; conditions: max 0.3 µM
Procedure, shortened: as §1

[14] = compound: C[C@@H]1COCCN1C2=NC(=NC(=C2)C3(CC3)[S@](=N)(=O)C)C4=C5C=CNC5=NC=C4 [AZD6738]; conditions: max 10 µM
Procedure, shortened: as §1

[15] = compound: CS(=O)(=O)CCNCc1ccc(-c2ccc3ncnc(Nc4ccc(OCc5cccc(F)c5)c(Cl)c4)c3c2)o1 [Lapatinib]; conditions: max 10 µM
Procedure, shortened: as §1

[16] = compound: Cn1cnc2c(F)c(Nc3ccc(Br)cc3Cl)c(C(=O)NOCCO)cc21 [Selumetinib]; conditions: max 10 µM
Procedure, shortened: as §1

[17] = compound: COc1cccc(OCCCN)c1-c1cc(Nc2cnc(C#N)cn2)n[nH]1 [Prexasertib]; conditions: max 1 µM
Procedure, shortened: as §1

[18] = compound: CN(CC[C@H](CSC1=CC=CC=C1)NC2=C(C=C(C=C2)S(=O)(=O)NC(=O)C3=CC=C(C=C3)N4CCC(CC4)[C@H](C5=CC=CC=C5C6=CC=C(C=C6)Cl)O)S(=O)(=O)C(F)(F)F)CCO [AZD4320]; conditions: max 1 µM
Procedure, shortened: as §1

[19] = compound: C[C@@H](c1ccc2nccn2c1)n1nnc2ncc(-c3cnn(C)c3)nc21 [Savolitinib]; conditions: max 1 µM
Procedure, shortened: as §1

[20] = compound: CCN(CCO)CCCOc1ccc2c(Nc3cc(CC(=O)Nc4cccc(F)c4)[nH]n3)ncnc2c1 [AZD2811]; conditions: max 1 µM
Procedure, shortened: as §1

[21] = compound: C1CN(CCC1(C(=O)N[C@@H](CCO)C2=CC=C(C=C2)Cl)N)C3=NC=NC4=C3C=CN4 [Capivasertib]; conditions: max 10 µM
Procedure, shortened: as §1

[22] = compound: CC1(C)CCC(CN2CCN(c3ccc(C(=O)NS(=O)(=O)c4ccc(NCC5CCOCC5)c([N+](=O)[O-])c4)c(Oc4cnc5[nH]ccc5c4)c3)CC2)=C(c2ccc(Cl)cc2)C1 [Venetoclax]; conditions: max 1 µM
Procedure, shortened: as §1

[23] = compound: CC(=O)c1c(C)c2cnc(Nc3ccc(N4CCNCC4)cn3)nc2n(C2CCCC2)c1=O [Palbociclib]; conditions: max 10 µM
Procedure, shortened: as §1

[24] = compound: Cc1nc(-c2cn3c(n2)-c2ccc(-c4cnn(C(C)(C)C(N)=O)c4)cc2OCC3)n(C(C)C)n1 [Taselisib]; conditions: max 10 µM
Procedure, shortened: as §1

[25] = compound: CC(=O)Nc1cccc(-n2c(=O)n(C3CC3)c(=O)c3c(Nc4ccc(I)cc4F)n(C)c(=O)c(C)c32)c1 [Trametinib]; conditions: max 1 µM
Procedure, shortened: as §1

[26] = compound: COc1nnc2ccc(N3CCC(c4ccc(OCCN5CCN(C)C(=O)[C@H]5C)cc4)CC3)nn12 [AZD5153]; conditions: max 1 µM
Procedure, shortened: as §1

[27] = compound: C[C@@H](Nc1cc(F)cc(F)c1)c1cc(C(=O)N(C)C)cc2c(=O)cc(N3CCOCC3)oc12 [AZD8186]; conditions: max 3 µM
Procedure, shortened: as §1

JHH-1 (Hepatocellular Carcinoma)
IC50, cell viability 72 h [1]: > 1 nM
IC50, cell viability 72 h [2]: > 300 nM
IC50, cell viability 72 h [3]: > 1000 nM
IC50, cell viability 72 h [4]: > 10000 nM
IC50, cell viability 72 h [5]: > 2000 nM
IC50, cell viability 72 h [6]: > 10000 nM
IC50, cell viability 72 h [7]: > 1000 nM
IC50, cell viability 72 h [8]: > 3000 nM
IC50, cell viability 72 h [9]: 1270 nM
IC50, cell viability 72 h [10]: > 10000 nM
IC50, cell viability 72 h [11]: > 10000 nM
IC50, cell viability 72 h [12]: > 10000 nM
IC50, cell viability 72 h [13]: > 300 nM
IC50, cell viability 72 h [14]: > 10000 nM
IC50, cell viability 72 h [15]: > 10000 nM
IC50, cell viability 72 h [16]: > 10000 nM
IC50, cell viability 72 h [17]: 259 nM
IC50, cell viability 72 h [18]: > 1000 nM
IC50, cell viability 72 h [19]: > 1000 nM
IC50, cell viability 72 h [20]: > 1000 nM
IC50, cell viability 72 h [21]: > 10000 nM
IC50, cell viability 72 h [22]: > 1000 nM
IC50, cell viability 72 h [23]: > 10000 nM
IC50, cell viability 72 h [24]: > 10000 nM
IC50, cell viability 72 h [25]: 410 nM
IC50, cell viability 72 h [26]: > 1000 nM
IC50, cell viability 72 h [27]: > 3000 nM

NCI-H196 (Small Cell Lung Carcinoma)
IC50, cell viability 72 h [1]: > 1 nM
IC50, cell viability 72 h [2]: > 300 nM
IC50, cell viability 72 h [3]: > 1000 nM
IC50, cell viability 72 h [4]: > 10000 nM
IC50, cell viability 72 h [5]: > 2000 nM
IC50, cell viability 72 h [6]: > 10000 nM
IC50, cell viability 72 h [7]: > 1000 nM
IC50, cell viability 72 h [8]: > 3000 nM
IC50, cell viability 72 h [9]: 2110 nM
IC50, cell viability 72 h [10]: > 10000 nM
IC50, cell viability 72 h [11]: > 10000 nM
IC50, cell viability 72 h [12]: > 10000 nM
IC50, cell viability 72 h [13]: > 300 nM
IC50, cell viability 72 h [14]: > 10000 nM
IC50, cell viability 72 h [15]: > 10000 nM
IC50, cell viability 72 h [16]: > 10000 nM
IC50, cell viability 72 h [17]: 170 nM
IC50, cell viability 72 h [18]: > 1000 nM
IC50, cell viability 72 h [19]: > 1000 nM
IC50, cell viability 72 h [20]: > 1000 nM
IC50, cell viability 72 h [21]: > 10000 nM
IC50, cell viability 72 h [22]: > 1000 nM
IC50, cell viability 72 h [23]: > 10000 nM
IC50, cell viability 72 h [24]: > 10000 nM
IC50, cell viability 72 h [25]: > 1000 nM
IC50, cell viability 72 h [26]: > 1000 nM
IC50, cell viability 72 h [27]: > 3000 nM

NCI-H1155 (Non-Small Cell Lung Carcinoma)
IC50, cell viability 72 h [1]: > 1 nM
IC50, cell viability 72 h [2]: > 300 nM
IC50, cell viability 72 h [3]: 617 nM
IC50, cell viability 72 h [4]: > 10000 nM
IC50, cell viability 72 h [5]: > 2000 nM
IC50, cell viability 72 h [6]: > 10000 nM
IC50, cell viability 72 h [7]: > 1000 nM
IC50, cell viability 72 h [8]: > 3000 nM
IC50, cell viability 72 h [9]: > 3000 nM
IC50, cell viability 72 h [10]: 9880 nM
IC50, cell viability 72 h [11]: > 10000 nM
IC50, cell viability 72 h [12]: > 10000 nM
IC50, cell viability 72 h [13]: 4.68 nM
IC50, cell viability 72 h [14]: 5970 nM
IC50, cell viability 72 h [15]: > 10000 nM
IC50, cell viability 72 h [16]: > 10000 nM
IC50, cell viability 72 h [17]: 49.1 nM
IC50, cell viability 72 h [18]: > 1000 nM
IC50, cell viability 72 h [19]: > 1000 nM
IC50, cell viability 72 h [20]: > 1000 nM
IC50, cell viability 72 h [21]: 8340 nM
IC50, cell viability 72 h [22]: > 1000 nM
IC50, cell viability 72 h [23]: > 10000 nM
IC50, cell viability 72 h [24]: > 10000 nM
IC50, cell viability 72 h [25]: > 1000 nM
IC50, cell viability 72 h [26]: 541 nM
IC50, cell viability 72 h [27]: > 3000 nM

NCI-H1563 (Lung Adenocarcinoma)
IC50, cell viability 72 h [1]: > 1 nM
IC50, cell viability 72 h [2]: > 300 nM
IC50, cell viability 72 h [3]: > 1000 nM
IC50, cell viability 72 h [4]: > 10000 nM
IC50, cell viability 72 h [5]: 1120 nM
IC50, cell viability 72 h [6]: > 10000 nM
IC50, cell viability 72 h [7]: > 1000 nM
IC50, cell viability 72 h [8]: > 3000 nM
IC50, cell viability 72 h [9]: > 3000 nM
IC50, cell viability 72 h [10]: > 10000 nM
IC50, cell viability 72 h [11]: > 10000 nM
IC50, cell viability 72 h [12]: > 10000 nM
IC50, cell viability 72 h [13]: > 300 nM
IC50, cell viability 72 h [14]: > 10000 nM
IC50, cell viability 72 h [15]: > 10000 nM
IC50, cell viability 72 h [16]: > 10000 nM
IC50, cell viability 72 h [17]: > 1000 nM
IC50, cell viability 72 h [18]: > 1000 nM
IC50, cell viability 72 h [19]: > 1000 nM
IC50, cell viability 72 h [20]: > 1000 nM
IC50, cell viability 72 h [21]: > 10000 nM
IC50, cell viability 72 h [22]: > 1000 nM
IC50, cell viability 72 h [23]: > 10000 nM
IC50, cell viability 72 h [24]: 2480 nM
IC50, cell viability 72 h [25]: > 1000 nM
IC50, cell viability 72 h [26]: > 1000 nM
IC50, cell viability 72 h [27]: 2270 nM
